The results in this text go back to patent US10376584B2, “Stable pharmaceutical formulations of methylnaltrexone” (Progenics Pharmaceuticals, Inc., priority 2003, dated 2019).

This data set can be described thus: Autoclaving of methylnaltrexone solutions (122° C., 15 lbs. pressure for 20 min), degradation products. Type of data set: physicochemical. The procedure:
Applicants have discovered that during the autoclaving process, methylnaltrexone in aqueous solution tends to degrade to a surprising extent. The amount of degradation resulting from simple autoclaving (122° C., 15 lbs. pressure for 20 min.) can be as high as […]. The degradation products are depicted in FIG. 1, and appear to include at least two predominant degradants having relative retention times (RRT) of 0.72 (2.828 minutes) and 0.89 (3.435 minutes) and, with other minor forms as can be observed. The degradant identified by the 0.72 RRT peak appears in small amounts, 0.074, immediately upon dissolving the methylnaltrexone into solution and increases overtime with storage or autoclaving 0.25%. The degradant identified by the 0.89 RRT peak appears only after storage over time or after autoclaving (<0.05% and 0.724%, respectively). Applicants also have discovered that methylnaltrexone is unstable in aqueous solutions when stored at room temperature or even at 4° C. for significant (but commercially necessary) periods of time such as 6 months, 12 months or even two years. Degradation occurs without regard to whether the aqueous solution was previously autoclaved or filter sterilized. It would be desirable to stabilize formulations of methylnaltrexone such that following the autoclaving process or following storage (or both autoclaving and storage), the amount of the total degradation products would be less than 2.0%, 1.5%, 1.0%, 0.5%, 0.25%, and even 0.125%.
The invention provides stable formulations of methylnaltrexone. By stable solutions of methylnaltrexone, it is meant that following autoclaving at 122° C., 15 lbs. pressure for 20 minutes, the methylnaltrexone degradation products resulting from such conditions are not more than 2% of the total methylnaltrexone present in a given solution. […]

As for `C[N@+]1(CC2CC2)CC[C@]23c4c5ccc(O)c4O[C@H]2C(=O)CC[C@@]3(O)[C@H]1C5` [methylnaltrexone], the “levels of degradation products after autoclaving with buffering agents” value (buffers in concentrations ranging from 0.25 mM to 25 mM) is reported as “Acceptable levels of degradation products”. Besides, where the note is “pH between 4.25 and 6”, the “stability to autoclaving by adjustment of pH alone” value was “not sufficient to produce stable formulations”. Moreover, where the note is “pH set between 3.0 and 6.0 with pH-adjusting acid or base prior to autoclaving, no buffer”, the “pH of the autoclaved sample” value is “about 7.0”.
